Experimental data from paper PMC3771522 (Analytical chemistry, 2013).

Legend:
[1] = molecular target: proliferating cell nuclear antigen (PCNA) (Homo sapiens, UniProt P12004); assay: fluorescence titration, hyperbolic single-site fit; format: binding; settings: constant PCNA, increasing TNP-ATP
[2] = molecular target: creatine phosphokinase; assay: fluorescence titration, hyperbolic single-site fit; settings: known ATP-binding protein for comparison

proliferating cell nuclear antigen (PCNA), sequence (P12004 whole entry): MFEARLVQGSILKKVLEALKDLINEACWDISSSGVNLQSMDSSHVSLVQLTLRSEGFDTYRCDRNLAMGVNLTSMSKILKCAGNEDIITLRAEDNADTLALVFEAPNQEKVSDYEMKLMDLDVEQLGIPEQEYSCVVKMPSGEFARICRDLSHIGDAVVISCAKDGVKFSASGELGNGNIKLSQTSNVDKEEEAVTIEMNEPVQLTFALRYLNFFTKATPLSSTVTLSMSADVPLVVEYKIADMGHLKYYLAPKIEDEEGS

TNP-ATP
Kd [1]: 13 µM
Kd [2]: 27 µM
